Laboratory results: patent publication US10085990B2, “Tricyclic compounds as modulators of TNF-α synthesis and as PDE4 inhibitors” (vTv Therapeutics LLC, priority 2008, dated 2018)

Test system: TNF synthesis in human PBMC
Assay: Human PBMC TNF Synthesis Assay
Format: cell-based
Settings: LPS-stimulated human PBMC, overnight incubation, TNF ELISA; read-out: TNF inhib.
Description: Human PBMC TNF Synthesis Assay
Human PBMC were obtained by from a healthy human donor leuko pak. Typically, all donors were pre-screened for STD, HIV and have been given a physical by a physician. One to two ampoules were thawed at 37° C. and then resuspended in 45 to 85 mL of RPMI+10% FBS to a final concentration of 2.5×10^6 cells/mL. Resuspended cells were filtered to remove any large clumps.
Prepare compounds for addition to cells: All compounds were DMSO stocks at 20 mM. Working stock for cell testing were prepared as 4× concentrated material in RPMI+10% FBS. Compounds were added to a polypropylene block and then diluted with the appropriate amount of RPMI+10% FBS. Typically 2.6 μL of 20 mM stock was diluted to 650 μL final volume to yield an 80 μM starting concentration in the stocks. RPMI was added to DMSO stock by pipetting into the tube or block. The compounds were then serial diluted with RPMI+10% FBS. The final DMSO concentrations were not greater than 0.5% in the assay.
Compounds were added to the cells as 4× working stock. 50 μL of compound was prepared above is added to the cells and re-equilibrated in a humidified 5% CO2 incubator at 37° C. for 30 minutes.
A stock of LPS was prepared using RPMI+10% FBS. To prepare the stock, 2.8 μL of LPS (5 mg/mL; Sigma Cat #L3024) was added to 35 mL of media. 50 μL of the LPS in media was added to the cells. Control cultures without LPS received only RPMI+10% FBS. After an overnight incubation at 37° C., the cell culture supernatant was harvested and stored in a polypropylene 96 well plate.
Samples were tested for TNF as per the manufacturer's instructions (TNF ELISA; R&D Systems, Cat #DY210). The samples were serially diluted with PBS+1% BSA to the appropriate dilution condition for the cell prep, typically a 1:4 or 1:6 dilution.

Compound | IC50 [nM]
COC(=O)N1CCC(n2c(=O)n(-c3cccc(Cl)c3)c(=O)c3cnc4c(OC)cccc4c32)CC1 [Example 124, 4-[3-(3-Chloro-phenyl)-7-methoxy-2,4-dioxo-3,4-dihydro-2H-pyrimido[5,4-c]quinolin-1-yl]-piperidine-1-carboxylic acid methyl ester] | 50000
COc1cccc2c1ncc1c(=O)n(-c3cccc(Cl)c3)c(=O)n(CC3CCN(S(C)(=O)=O)CC3)c12 [Example 126, 3-(3-Chloro-phenyl)-1-(1-methanesulfonyl-piperidin-4-ylmethyl)-7-methoxy-1H-pyrimido[5,4-c]quinoline-2,4-dione] | 2
COc1cccc2c1ncc1c(=O)n(-c3cccc(Cl)c3)c(=O)n([C@H]3CC[C@H](NS(C)(=O)=O)CC3)c12 [Example 127, N-{4-[(S)-3-(3-Chloro-phenyl)-7-methoxy-2,4-dioxo-3,4-dihydro-2H-pyrimido[5,4-c]quinolin-1-yl]-trans-cyclohexyl}-methanesulfonamide] | 6
